# Source: paper PMC3684443 (ACS chemical biology, 2012)
# Tests used:
# [1] = tested on: HNSCC cell line 1483 xenograft tumors; test: Antitumor effect in HNSCC xenograft model, tumor volume; assay type: in vivo, Athymic nude mice; conditions: 2 weeks treatment, comparison between the three treated groups
# HNSCC = conditions: cited from earlier work
structure (smiles),measurement,setting,value
C#Cc1cccc(Nc2ncnc3cc(OCCOC)c(OCCOC)cc23)c1 [erlotinib],"Response among erlotinib, cetuximab and EGFRAS-GPNA groups",[1],no significant difference
same,Clinical response rate,HNSCC; HNSCC and NSCLC patients,4%
same,Disease stabilization,"HNSCC; phase II trial, for 16 weeks",38%
same,Response rate,HNSCC; phase II trial,4%
